Where two headings read alike, the source gives them in different places.
What was measured:
HepG2 = assay: In vitro cytotoxicity, IC50 by MTT method, HepG2; assay type: cell-based, human; conditions: Homo sapiens
Description: (§1) Culture medium powder RPMI1640 was dissolved in a proper amount of tri-distilled water according to the instruction of the product. […] It was the basic culture solution. The complete culture solution was added with FBS having a final concentration of 10%, 100 U/ml penicillin and 100 µg/ml streptomycin. The solution was fully stirred by a magnetic blender, and the pH of the solution was adjusted to 6.8-7.0. The volume was kept constant. After being filtered and disinfected, the solution was kept into several containers which were sealed and stored at 4° C.
(§2) The cells were placed in a culture dish followed by the addition of complete culture liquid RPMI1640 and then cultured in a incubator comprising 5% CO2 at 37° C. In the exponential growth phase, the cells grew vigorously. If the culture liquid became yellow, the liquid should be replaced instantly.
(§3) The cells, at a concentration of 10^5/ml, were inoculated at a 96-pore culture plate. In each pore, 100 μl cells were inoculated. The cells were placed in a CO2 incubator until the cells were in the logarithmic growth phase. The samples to be tested were added according to the preset concentration gradient. For each gradient, the test was conducted at least three times. An equivalent amount of solvent for dissolving the samples was added in the control group. After 48 h of culture, each pore was added 20 μl MTT (5 mg/ml). The cells were cultured at 37° C. for 4 h. After the supernatant was carefully removed, 100 μl DMSO was added in each pore. The plate was agitated for about 10 minutes such that the precipitates were dissolved. After that, OD value was identified with a Microplate Reader at the wavelength of 490 nm. The survival rate of the cells at various concentrations was calculated according to the following formula:
(§4) Survival rate %=average OD value of the sample group/average OD value of the control group×100%
(§5) Plots of log survival rate of the cells vs. concentration of the medicament were constructed, and the IC50 value of each sample was calculated according to graphing methods.

PLA-801 = assay: In vitro cytotoxicity, IC50 by MTT method, PLA-801; assay type: cell-based
Description: as §1, §2, §3, §4, §5

Bel-7402 = assay: In vitro cytotoxicity, IC50 by MTT method, Bel-7402; assay type: cell-based; conditions: Homo sapiens, Bel-7402
Description: as §1, §2, §3, §4, §5

BGC-823 = assay: In vitro cytotoxicity, IC50 by MTT method, BGC-823; assay type: cell-based; conditions: Homo sapiens, BGC-823
Description: as §1, §2, §3, §4, §5

Hela = assay: In vitro cytotoxicity, IC50 by MTT method, Hela; assay type: cell-based; conditions: Homo sapiens
Description: as §1, §2, §3, §4, §5

Lovo = assay: In vitro cytotoxicity, IC50 by MTT method, Lovo; assay type: cell-based; conditions: Homo sapiens
Description: as §1, §2, §3, §4, §5

NIH3T3 = assay: In vitro cytotoxicity, IC50 by MTT method, NIH3T3; assay type: cell-based; conditions: Mus musculus
Description: as §1, §2, §3, §4, §5

[1] = HepG2 cell strain, read-out: IC50 HepG2
[2] = PLA-801 cell strain, read-out: IC50 PLA-801
[3] = Bel7402 cell strain, read-out: IC50 Bel7402
[4] = BGC823 cell strain, read-out: IC50 BGC823
[5] = Hela cell strain, read-out: IC50 Hela
[6] = Lovo cell strain, read-out: IC50 Lovo
[7] = NIH3T3 cell strain, read-out: IC50 NIH3T3

For `CCCCn1c2ccccc2c2cc(C(=O)OCC)ncc21` [Compound 32, ethyl 9-butyl-β-carboline-3-carboxylate], the IC50 (HepG2; [1]) was 480 µM, the IC50 (PLA-801; [2]) was 70 µM and the IC50 (Bel-7402; [3]) was 780 µM. For the same compound, the IC50 (BGC-823; [4]) was 760 µM, the IC50 (Hela; [5]) was 490 µM and the IC50 (Lovo; [6]) was 170 µM. For the same compound, the IC50 (NIH3T3; [7]) was 60 µM and the melting point was 76 to 77 °C.
In the case of `CCCc1nc(C(=O)OCC)cc2c3ccccc3n(CC)c12` [Compound 69, ethyl 1-propyl-9-ethyl-β-carboline-3-carboxylate], the IC50 (HepG2; [1]) is reported as 110 µM, the IC50 (PLA-801; [2]) is reported as 710 µM and the IC50 (Bel-7402; [3]) is reported as 330 µM. The IC50 (BGC-823; [4]) was 230 µM, the IC50 (Hela; [5]) was 90 µM and the IC50 (Lovo; [6]) was 100 µM. The IC50 (NIH3T3; [7]) was 100 µM and the melting point was 86 to 87 °C.
`CC(=O)COc1cc2c(cn1)[nH]c1ccccc12` [Compound 25, 3-acetylmethoxy-β-carboline] gave an IC50 (HepG2; HepG2, MTT, read-out: IC50) of 1130 µM, an IC50 (PLA-801; PLA-801, MTT, read-out: IC50) of 780 µM and an IC50 (Bel-7402; BeI7402, MTT, read-out: IC50) of 590 µM. It also gave an IC50 (BGC-823; BGC823, MTT, read-out: IC50) of 640 µM, an IC50 (Hela; Hela, MTT, read-out: IC50) of 780 µM and an IC50 (Lovo; Lovo, MTT, read-out: IC50) of 250 µM. The IC50 (NIH3T3; NIH3T3, MTT, read-out: IC50) was 310 µM and the melting point was 131 to 132 °C.
`COC(=O)Nc1cc2c(cn1)[nH]c1ccccc12` [Compound 22, 3-[(methoxycarbonyl)amino]-β-carboline] gave an IC50 (HepG2; HepG2, MTT, read-out: IC50) of 230 µM, an IC50 (PLA-801; PLA-801, MTT, read-out: IC50) of 200 µM and an IC50 (Bel-7402; BeI7402, MTT, read-out: IC50) of 130 µM. It also gave an IC50 (BGC-823; BGC823, MTT, read-out: IC50) of 210 µM, an IC50 (Hela; Hela, MTT, read-out: IC50) of 170 µM and an IC50 (Lovo; Lovo, MTT, read-out: IC50) of 160 µM. It also gave an IC50 (NIH3T3; NIH3T3, MTT, read-out: IC50) of 320 µM and a melting point of 180 to 182 °C.
In the case of `COC(=O)c1cc2c3ccccc3n(Cc3ccccc3)c2cn1` [Compound 29, methyl 9-benzyl-β-carboline-3-carboxylate], the IC50 (HepG2; [1]) is reported as 1770 µM, the IC50 (PLA-801; [2]) is reported as 480 µM and the IC50 (Bel-7402; [3]) is reported as 60 µM. For the same compound, the IC50 (BGC-823; [4]) was 950 µM, the IC50 (Hela; [5]) was 120 µM and the IC50 (Lovo; [6]) was 310 µM. For the same compound, the IC50 (NIH3T3; [7]) was 360 µM and the melting point was 187 to 188 °C.
In the case of `CCCCOC(=O)c1cc2c3ccccc3n(C)c2cn1` [Compound 38, butyl 9-methyl-β-carboline-3-carboxylate], the IC50 (HepG2; [1]) is reported as 1610 µM, the IC50 (PLA-801; [2]) is reported as over 3000 µM and the IC50 (Bel-7402; [3]) is reported as over 3000 µM. For the same compound, the IC50 (BGC-823; [4]) was over 3000 µM, the IC50 (Hela; [5]) was over 3000 µM and the IC50 (Lovo; [6]) was 2520 µM. For the same compound, the IC50 (NIH3T3; [7]) was over 3000 µM and the melting point was 235 to 238 °C.
In the case of `CCOC(=O)c1cc2c3ccccc3n(C)c2c(C)n1` [Compound 56, ethyl 1,9-dimethyl-β-carboline-3-carboxylate], the IC50 (HepG2; [1]) is reported as 100 µM, the IC50 (PLA-801; [2]) is reported as 140 µM and the IC50 (Bel-7402; [3]) is reported as 490 µM. It also gave an IC50 (BGC-823; [4]) of 130 µM, an IC50 (Hela; [5]) of 110 µM and an IC50 (Lovo; [6]) of 50 µM. The IC50 (NIH3T3; [7]) was 60 µM and the melting point was 141 to 142 °C.
Compound `O=C(OCc1ccccc1)c1cc2c3ccccc3n(Cc3ccccc3)c2cn1` [Compound 44, benzyl 9-benzyl-β-carboline-3-carboxylate] has an IC50 (HepG2; [1]) of over 3000 µM, an IC50 (PLA-801; [2]) of over 3000 µM and an IC50 (Bel-7402; [3]) of over 3000 µM. It also gave an IC50 (BGC-823; [4]) of over 3000 µM, an IC50 (Hela; [5]) of over 3000 µM and an IC50 (Lovo; [6]) of over 3000 µM. For the same compound, the IC50 (NIH3T3; [7]) was over 3000 µM and the melting point was 169 to 170 °C.
For `CCOC(=O)c1cc2c3ccccc3n(Cc3ccccc3)c2c(C)n1` [Compound 58, ethyl 9-benzyl-1-methyl-β-carboline-3-carboxylate], the IC50 (HepG2; [1]) was 2000 µM, the IC50 (PLA-801; [2]) was 1390 µM and the IC50 (Bel-7402; [3]) was 210 µM. The IC50 (BGC-823; [4]) was 2080 µM, the IC50 (Hela; [5]) was 250 µM and the IC50 (Lovo; [6]) was 170 µM. The IC50 (NIH3T3; [7]) was 1820 µM and the melting point was 155 to 156 °C.
`CCOC(=O)Nc1cc2c3ccccc3n(CC)c2cn1` [Compound 54, 3-[(ethoxycarbonyl)amino]-9-ethyl-β-carboline] showed an IC50 (HepG2; [1]) of over 3000 µM, an IC50 (PLA-801; [2]) of over 3000 µM and an IC50 (Bel-7402; [3]) of 1680 µM. The IC50 (BGC-823; [4]) was over 3000 µM, the IC50 (Hela; [5]) was over 3000 µM and the IC50 (Lovo; [6]) was over 3000 µM. The IC50 (NIH3T3; [7]) was over 3000 µM and the melting point was 217 to 218 °C.
For `OCc1cc2c(cn1)[nH]c1ccccc12` [Compound 24, 3-hydroxymethyl-β-carboline], the IC50 (HepG2; HepG2, MTT, read-out: IC50) was 580 µM, the IC50 (PLA-801; PLA-801, MTT, read-out: IC50) was 1080 µM and the IC50 (Bel-7402; BeI7402, MTT, read-out: IC50) was 740 µM. For the same compound, the IC50 (BGC-823; BGC823, MTT, read-out: IC50) was 780 µM, the IC50 (Hela; Hela, MTT, read-out: IC50) was 620 µM and the IC50 (Lovo; Lovo, MTT, read-out: IC50) was 490 µM. It also gave an IC50 (NIH3T3; NIH3T3, MTT, read-out: IC50) of 360 µM and a melting point of 226 to 228 °C.
